The results in this text go back to ChEMBL document CHEMBL1146583, “Acetylenic acids inhibiting azole-resistant Candida albicans from Pentagonia gigantifolia” (J Nat Prod, 2003).

Series [1] concerns Candida albicans. Kind of series: Antifungal activity against Candida albicans ATCC 90028 after 24 to 48 hrs by NCCLS method. Format: functional, organism-based.
Series [2] deals with Vero. Kind of series: Cytotoxicity against african green monkey Vero cells at 10 ug/mL. Format: cell-based. The note with it: chlorocebus sabaeus.
Series [3] relates to Candida albicans. Kind of series: Antifungal activity against Candida albicans ATCC 90028 by sphingolipid reversal assay in presence of 30 ug/mL stearylamine. Format: functional, organism-based.
Series [4] concerns Candida albicans. The series can be described thus: Antifungal activity against Candida albicans ATCC 90028 by sphingolipid reversal assay in presence of 15 ug/mL stearylamine. Format: functional, organism-based.
For series [5], the system named is SK-MEL. The series can be described thus: Cytotoxicity against human SK-MEL cells at 10 ug/mL. Format: functional, cell-based.
Series [6] concerns Candida albicans. The series can be described thus: Antifungal activity against Candida albicans ATCC 90028 by sphingolipid reversal assay in presence of 1.25 ug/mL dihydrosphingosine. In kind it is functional, organism-based.
The test system of series [7] is Candida albicans. Kind of series: Antifungal activity against fluconazole-resistant Candida albicans isolate 2 after 24 to 48 hrs by NCCLS method. Format: functional, organism-based. The following applies: for IC50 / IC80: Candida albicans.
The subject of series [8] is KB. The series can be described thus: Cytotoxicity against human KB cells at 10 ug/mL. In kind it is functional, cell-based.
The subject of series [9] is Candida albicans. The series can be described thus: Antifungal activity against fluconazole-resistant Candida albicans isolate 8 after 24 to 48 hrs by NCCLS method. Format: functional, organism-based. The note with it: for IC50 / IC80: Candida albicans.
The test system of series [10] is Candida albicans. Kind of series: Antifungal activity against Candida albicans ATCC 90028 by sphingolipid reversal assay in presence of 2.5 ug/mL dihydrosphingosine. Format: functional, organism-based.
For series [11], the system named is Candida albicans. Kind of series: Antifungal activity against fluconazole-resistant Candida albicans isolate 5 after 24 to 48 hrs by NCCLS method. In kind it is functional, organism-based. The following applies: for IC50 / IC80: Candida albicans.
In series [12] the test system is SK-OV-3. Kind of series: Cytotoxicity against human SKOV3 cells at 10 ug/mL. Format: functional, cell-based.
Series [13] relates to Candida albicans. The series can be described thus: Antifungal activity against Candida albicans ATCC 90028 by sphingolipid reversal assay in presence of 5 ug/mL stearylamine. Format: functional, organism-based.
Series [14] has as its system Candida albicans. Kind of series: Antifungal activity against Candida albicans ATCC 90028 by sphingolipid reversal assay in presence of 5.0 ug/mL dihydrosphingosine. In kind it is functional, organism-based.
Series [15] relates to Candida albicans. The series can be described thus: Antifungal activity against fluconazole-resistant Candida albicans isolate 17 after 24 to 48 hrs by NCCLS method. In kind it is functional, organism-based. The note with it: for IC50 / IC80: Candida albicans.
Series [16] concerns BT-549. The series can be described thus: Cytotoxicity against human BT549 cells at 10 ug/mL. Format: functional, cell-based.
The test system of series [17] is Candida albicans. The series can be described thus: Antifungal activity against fluconazole-susceptible Candida albicans isolate 1 after 24 to 48 hrs by NCCLS method. In kind it is functional, organism-based. The note with it: for IC50 / IC80: Candida albicans.
Series [18] concerns Candida albicans. Kind of series: Antifungal activity against fluconazole-resistant Candida albicans isolate 17 at 100 ug/mL after 24 to 48 hrs by NCCLS method. Format: functional, organism-based.

Molecules are shown by their SMILES. Values after ≈ are worked out from the molar mass of the structure shown. Active and inactive are the calls of the source.

What is called IC50 is the concentration that inhibits the measured activity by half. The IC80 is the concentration at which the effect reaches the 80% level. The term MIC denotes the smallest concentration in the dilution series that meets the test's criterion for growth inhibition.

Consider `CCCCCCCCCCCC#CCCCCC(=O)OC`, for which, in series [1], the outcome was inactive.

Turning to `CCCCCCCCCCCCC#CCCCCC(=O)OC`, in series [1], the outcome was inactive.

For the compound `CCCCCCCCCCCCC#CCCCCC(=O)O` [6-NONADECYNOIC ACID], in series [2], the Activity result is on record as “Not Active”. The IC50 in series [3] was 35 µg/mL; in [4], 15 µg/mL; in series [6] it was 1 µg/mL; in series [7], 0.25 µg/mL (≈ 0.849 µM); in series [9], 0.5 µg/mL (≈ 1.7 µM); in series [10] it was 2 µg/mL. Besides, the IC50 worked out at 0.45 µg/mL (≈ 1.53 µM) in series [11]; 0.33 µg/mL (≈ 1.12 µM) in series [1]; 5 µg/mL in [13]; 4.5 µg/mL in series [14]; 0.45 µg/mL (≈ 1.53 µM) in series [15]; 0.25 µg/mL (≈ 0.849 µM) in [17]. The result in series [5], in [8], in [12] and in series [16] was inactive. The Fungicidal in series [7] was 0.35 µg/mL; in series [9], 0.8 µg/mL; in series [11], 0.8 µg/mL; in series [15], 0.7 µg/mL; in series [17] it was 0.45 µg/mL. Moreover, the IC80 stood at 0.3 µg/mL (≈ 1.02 µM) in series [7]; 0.65 µg/mL (≈ 2.21 µM) in series [9]; 0.6 µg/mL (≈ 2.04 µM) in [11]; 0.6 µg/mL (≈ 2.04 µM) in series [15]; 0.35 µg/mL (≈ 1.19 µM) in [17]. This compound came in with an MIC in series [1] of 0.52 µg/mL (≈ 1.77 µM).

Regarding `CCCCCCCCCCCC#CCCCCC(=O)O` [6-OCTADECYNOIC ACID], in [2], the Activity entry is “Not Active”. For the same compound, the IC50 in [3] was 30 µg/mL; in series [4] it was 15 µg/mL; in series [6], 0.7 µg/mL; in series [7], 0.5 µg/mL (≈ 1.78 µM); in [9] it was 0.9 µg/mL (≈ 3.21 µM); in series [10], 2 µg/mL. For the same compound, the IC50 in series [11] was 0.7 µg/mL (≈ 2.5 µM); in series [1] it was 0.38 µg/mL (≈ 1.35 µM); in series [13], 3.5 µg/mL; in series [14], 4.5 µg/mL; in series [15], 0.65 µg/mL (≈ 2.32 µM); in series [17], 0.45 µg/mL (≈ 1.6 µM). The outcome in [5], in series [8], in [12] and in series [16] was inactive. The Fungicidal in series [7] came out at 0.75 µg/mL; in [9] it was 1.5 µg/mL; in series [11] it was 2 µg/mL; in [15] it was 1.5 µg/mL; in series [17], 0.7 µg/mL. The IC80 is 0.65 µg/mL (≈ 2.32 µM) in series [7]; 1 µg/mL (≈ 3.57 µM) in [9]; 1 µg/mL (≈ 3.57 µM) in series [11]; 1 µg/mL (≈ 3.57 µM) in series [15]; 0.6 µg/mL (≈ 2.14 µM) in series [17]. Besides, the MIC in series [1] was determined as 1.04 µg/mL (≈ 3.71 µM).

As for `C[C@@H]1[C@H](O)[C@@H](C)/C=C/C=C/C=C/C=C/C=C/C=C/C=C/[C@H](O[C@@H]2O[C@H](C)[C@@H](O)[C@H](N)[C@@H]2O)C[C@@H]2O[C@](O)(C[C@@H](O)C[C@@H](O)[C@H](O)CC[C@@H](O)C[C@@H](O)CC(=O)O[C@H]1C)C[C@H](O)[C@H]2C(=O)O` [AMPHOTERICIN B], the IC50 was 0.65 µg/mL in [3], 0.4 µg/mL in [4] and 0.23 µg/mL (≈ 0.249 µM) in series [1]. In addition, the MIC in series [1] came out at 0.52 µg/mL (≈ 0.563 µM).

As to `OC(Cn1cncn1)(Cn1cncn1)c1ccc(F)cc1F` [FLUCONAZOLE], the IC50 in series [3] came out at 0.75 µg/mL; in series [4], 0.8 µg/mL; in series [6] it was 0.3 µg/mL; in [7], 1 µg/mL (≈ 3.27 µM); in [9], 15 µg/mL (≈ 49 µM); in [10], 0.5 µg/mL. Moreover, the IC50 in series [11] is 7.5 µg/mL (≈ 24.5 µM); in series [13] it was 0.65 µg/mL; in series [14] it was 0.7 µg/mL; in series [15] it was 40 µg/mL (≈ 131 µM). Moreover, the Fungicidal in series [7] was found to be 10 µg/mL; in [9], 25 µg/mL; in series [11] it was 10 µg/mL; in [17] it was 2 µg/mL. In addition, the IC80 was determined as 5 µg/mL (≈ 16.3 µM) in series [7]; 20 µg/mL (≈ 65.3 µM) in series [9]; 10 µg/mL (≈ 32.7 µM) in series [11]; 95 µg/mL (≈ 310 µM) in [15]; 0.2 µg/mL (≈ 0.653 µM) in series [17]. Also, the outcome in [18] was inactive. This compound also displayed an MIC in series [1] of 0.29 µg/mL (≈ 0.947 µM).

Take `Nc1nc(=O)[nH]cc1F` [FLUCYTOSINE]: the IC50 in [3] was 0.25 µg/mL; in series [4], 0.2 µg/mL; in series [6], 0.2 µg/mL; in series [10], 0.15 µg/mL; in [1], 0.47 µg/mL (≈ 3.64 µM); in [13], 0.25 µg/mL. In [14], the IC50 was 0.1 µg/mL. In addition, inhibition of growth in series [1] (MIC) required 1.04 µg/mL (≈ 8.06 µM).
